Measurements: patent US20140023611A1 (priority 2010, published 2014)

Target: T1, rat NaP2b (SLC34A2) (Rattus norvegicus, UniProt Q9JJ09)
T1 construct: host or cells: HEK293
T1 sequence (Q9JJ09 1-695): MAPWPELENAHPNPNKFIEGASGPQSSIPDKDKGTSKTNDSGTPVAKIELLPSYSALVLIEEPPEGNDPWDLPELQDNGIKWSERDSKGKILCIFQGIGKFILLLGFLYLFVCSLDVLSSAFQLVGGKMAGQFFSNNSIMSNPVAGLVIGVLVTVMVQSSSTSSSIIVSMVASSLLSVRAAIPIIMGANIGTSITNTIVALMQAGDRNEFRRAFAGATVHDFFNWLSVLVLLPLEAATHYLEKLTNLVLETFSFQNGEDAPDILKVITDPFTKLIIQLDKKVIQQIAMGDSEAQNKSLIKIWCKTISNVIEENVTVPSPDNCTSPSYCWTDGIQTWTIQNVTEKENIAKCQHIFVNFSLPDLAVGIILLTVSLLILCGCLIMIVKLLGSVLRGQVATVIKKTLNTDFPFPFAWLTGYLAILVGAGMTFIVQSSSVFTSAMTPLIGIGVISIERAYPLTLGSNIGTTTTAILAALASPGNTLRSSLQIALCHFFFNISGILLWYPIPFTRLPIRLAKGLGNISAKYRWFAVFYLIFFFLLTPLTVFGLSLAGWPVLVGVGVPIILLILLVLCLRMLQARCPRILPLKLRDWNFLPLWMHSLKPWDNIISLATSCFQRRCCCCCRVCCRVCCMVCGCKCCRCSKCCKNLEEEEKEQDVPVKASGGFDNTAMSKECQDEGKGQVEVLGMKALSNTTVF
Test: Inhibition of NaP2b-mediated Pi (33P) uptake in transfected HEK293 cells, rat NaP2b
Format: cell-based
Conditions: 33P Pi uptake, 0.1 mM phosphate, value given as pIC50 range
Summary of the method: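 HEK293 cells were transiently transfected with NaP2b cDNA using Lipofectamine and grown near confluence. Compounds were tested at twelve concentrations from 0.1 nM to 30 uM in duplicate, and 33P-phosphate uptake was counted by scintillation after lysis. Results are expressed as pIC50.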

IC50 [nM] | SMILES | pIC50 range for rat Nap2b
10000 to 31600 | CN(CCN1CCOCC1)C(=O)Nc1cccc(C(=O)Nc2ccc(N3CCCCC3)cc2-c2cc(C(=O)N[C@H]3CCCc4ccccc43)ccn2)c1 [Example 245, (S)-2-(2-(3-(3-methyl-3-(2-morpholinoethyl)ureido)benzamido)-5-(piperidin-1-yl)phenyl)-N-(1,2,3,4-tetrahydronaphthalen-1-yl)isonicotinamide] | 
1000 to 7940 | CCN(CC)c1ccc(NC(=O)c2cccc(CCCOCCOCCOCCOCCC(=O)N3CCN(CCOCCOCCOCCOCCOCCOCCOC)C(=O)C3)c2)c(-c2cc(C(=O)NCc3cccc(C(F)(F)F)c3)ccn2)c1 [Example 258, 2-(2-(3-(16-(4-(2,5,8,11,14,17,20-heptaoxadocosan-22-yl)-3-oxopiperazin-1-yl)-16-oxo-4,7,10,13-tetraoxahexadecyl)benzamido)-5-(diethylamino)phenyl)-N-(3-(trifluoromethyl)benzyl)isonicotinamide] | 
1000 to 7940 | CCN(CC)c1ccc(NC(=O)c2cccc(CCCOCCOCCOCCOCCC(=O)N(C)CCOCCOCCOCCOCCOCCOCCOC)c2)c(-c2cc(C(=O)NCc3cccc(C(F)(F)F)c3)ccn2)c1 [Example 259, 2-(5-(diethylamino)-2-(3-(23-methyl-24-oxo-2,5,8,11,14,17,20,27,30,33,36-undecaoxa-23-azanonatriacontan-39-yl)benzamido)phenyl)-N-(3-(trifluoromethyl)benzyl)isonicotinamide] | 
1000 to 7940 | CCN(CC)c1ccc(NC(=O)c2cccc(CCCOCCOCCOCCOCCC(=O)NCCOCCOCCOCCOCCOCCOCCOC)c2)c(-c2cc(C(=O)NCc3cccc(C(F)(F)F)c3)ccn2)c1 [Example 260, 2-(5-(diethylamino)-2-(3-(24-oxo-2,5,8,11,17,20,27,30,33,36-undecaoxa-23-azanonatriacontan-39-yl)benzamido)phenyl)-N-(3-(trifluoromethyl)benzyl)isonicotinamide] | 
1000 to 7940 | CCN(CC)c1ccc(NC(=O)c2cccc(CCCOCCOCCOCCOCCN)c2)c(-c2cc(C(=O)NCc3cccc(C(F)(F)F)c3)ccn2)c1 [Example 270, 2-(2-(3-(1-amino-3,6,9,12-tetraoxapentadecan-15-yl)benzamido)-5-(diethylamino)phenyl)-N-(3-(trifluoromethyl)benzyl)isonicotinamide] | 
1000 to 7940 | CCN(CC)c1ccc(NC(=O)c2cccc(CCCOCCOCCOCCOCCNS(=O)(=O)c3ccc(C(=O)N(C)CCOCCOCCOCCOCCOCCOCCOC)cc3)c2)c(-c2cc(C(=O)NCc3cccc(C(F)(F)F)c3)ccn2)c1 [Example 287, 2-(2-(3-(1-(4-(2,5,8,11,14,17,20-heptaoxadocosan-22-yl(methyl)carbamoyl)phenylsulfonamido)-3,6,9,12-tetraoxapentadecan-15-yl)benzamido)-5-(diethylamino)phenyl)-N-(3-(trifluoromethyl)benzyl)isonicotinamide] | 
1000 to 7940 | CCN(CC)c1ccc(NC(=O)c2cccc(CCCOCCOCCOCCOCCNS(=O)(=O)c3ccc(C(=O)N4CCN(CCOCCOCCOCCOCCOCCOCCOC)C(=O)C4)cc3)c2)c(-c2cc(C(=O)NCc3cccc(C(F)(F)F)c3)ccn2)c1 [Example 288, 2-(2-(3-(1-(4-(4-(2,5,8,11,14,17,20-heptaoxadocosan-22-yl)-3-oxopiperazine-1-carbonyl)phenylsulfonamido)-3,6,9,12-tetraoxapentadecan-15-yl)benzamido)-5-(diethylamino)phenyl)-N-(3-(trifluoromethyl)benzyl)isonicotinamide] | 
1000 to 7940 | CCN(CC)c1ccc(NC(=O)c2cccc(CCCOCCOCCOCCOCCNS(=O)(=O)c3ccc(CCC(=O)N(CCOC)CCOCCOCCOCCOCCOCCOCCOC)cc3)c2)c(-c2cc(C(=O)NCc3cccc(C(F)(F)F)c3)ccn2)c1 [Example 295, 2-(5-(diethylamino)-2-(3-(1-(4-(23-(2-methoxyethyl)-24-oxo-2,5,8,11,14,17,20-heptaoxa-23-azahexacosan-26-yl)phenylsulfonamido)-3,6,9,12-tetraoxapentadecan-15-yl)benzamido)phenyl)-N-(3-(trifluoromethyl)benzyl)isonicotinamide] | 
1000 to 7940 | CCN(CC)c1ccc(NC(=O)c2cccc(CCCOCCOCCOCCOCCNS(=O)(=O)c3ccc(CCC(=O)NCCOCCOCCOCCOCCOCCOCCOC)cc3)c2)c(-c2cc(C(=O)NCc3cccc(C(F)(F)F)c3)ccn2)c1 [Example 296, 2-(5-(diethylamino)-2-(3-(1-(4-(24-oxo-2,5,8,11,14,17,20-heptaoxa-23-azahexacosan-26-yl)phenylsulfonamido)-3,6,9,12-tetraoxapentadecan-15-yl)benzamido)phenyl)-N-(3-(trifluoromethyl)benzyl)isonicotinamide] | 
< 1000 | CCN(CC)c1ccc(NC(=O)c2cccc(CCCOCCOCCOCCOCCNS(=O)(=O)c3ccc(CCC(=O)O)cc3)c2)c(-c2cc(C(=O)N[C@H]3CCCc4ccccc43)ccn2)c1 [Example 320] | 
1000 to 7940 | CCN(CC)c1ccc(NC(=O)c2cccc(CCCOCCOCCOCCOCCNC(=O)C34CC5CC(CC(C5)C3)C4)c2)c(-c2cc(C(=O)N[C@H]3CCCc4ccccc43)ccn2)c1 [Example 322] | 
< 1000 | CCN(CC)c1ccc(NC(=O)c2cccc(CCCOCCOCCOCCOCCNC(=O)c3cc[nH]n3)c2)c(-c2cc(C(=O)N[C@H]3CCCc4ccccc43)ccn2)c1 [Example 323] | 
< 1000 | CCN(CC)c1ccc(NC(=O)c2cccc(CCCOCCOCCOCCOCCNC(=O)c3cccnc3)c2)c(-c2cc(C(=O)N[C@H]3CCCc4ccccc43)ccn2)c1 [Example 324] | 
< 1000 | CCN(CC)c1ccc(NC(=O)c2cccc(CCCOCCOCCOCCOCCNC(=O)c3ccc(O)cc3)c2)c(-c2cc(C(=O)N[C@H]3CCCc4ccccc43)ccn2)c1 [Example 325] | 
< 1000 | CCN(CC)c1ccc(NC(=O)c2cccc(CCCOCCOCCOCCOCCNC(=O)c3cscn3)c2)c(-c2cc(C(=O)N[C@H]3CCCc4ccccc43)ccn2)c1 [Example 326] | 
1000 to 7940 | CN(CCOCCOCCOCCC(=O)OC(C)(C)C)CCN(C)C(=O)c1cccc(C(=O)Nc2ccc(N3CCCCC3)cc2-c2cc(C(=O)N[C@H]3CCCc4ccccc43)ccn2)c1 [Example 329, tert-butyl 3-methyl-1-[N-methyl-1-(3-{[4-(piperidin-1-yl)-2-(4-{[(1S)-1,2,3,4-tetrahydronaphthalen-1-yl]carbamoyl}pyridin-2-yl)phenyl]carbamoyl}phenyl)formamido]-6,9,12-trioxa-3-azapentadecan-15-oate] | 
1000 to 7940 | CCN(CC)c1ccc(NC(=O)c2cccc(CCCOCCOCCOCC[N+](CC)(CC)CC)c2)c(-c2cc(C(=O)NCc3cccc(C(F)(F)F)c3)ccn2)c1 [Example 330, 2-(2-(2-(3-(3-(4-(diethylamino)-2-(4-(3-(trifluoromethyl)benzylcarbamoyl)pyridin-2-yl)phenylcarbamoyl)phenyl)propoxy)ethoxy)ethoxy)-N,N,N-triethylethanaminium] | 
 | CCN(CC)c1ccc(NC(=O)c2ccc(CCCOCCOCCOCC[N+]34CCC(CC3)CC4)cc2)c(-c2cc(C(=O)NCc3cccc(C(F)(F)F)c3)ccn2)c1 [Example 331, 1-(2-(2-(2-(3-(4-(4-(diethylamino)-2-(4-(3-(trifluoromethyl)benzylcarbamoyl)pyridin-2-yl)phenylcarbamoyl)phenyl)propoxy)ethoxy)ethoxy)ethyl)-1-azonia-bicyclo[2.2.2]octane] | 5.1-6.0
10000 to 31600 | COCCOCCOCCOCCOCCOCCOCCN(C)C(=O)C1CCN(CCN(C)C(=O)c2cccc(C(=O)Nc3ccc(N4CCCCC4)cc3-c3cc(C(=O)N[C@H]4CCCc5ccccc54)ccn3)c2)CC1 [Example 334, (S)—N^1-(2-(4-(2,5,8,11,14,17,20-Heptaoxadocosan-22-yl(methyl)carbamoyl)piperidin-1-yl)ethyl)-N1-methyl-N3-(4-(piperidin-1-yl)-2-(4-(1,2,3,4-tetrahydronaphthalen-1-ylcarbamoyl)pyridin-2-yl)phenyl)isophthalamide] | 
1000 to 7940 | CCN(CC)c1ccc(NC(=O)c2cccc(C(=O)N(C)CCN(C)CCOCCOCCOCCNC(C)=O)c2)c(-c2cc(C(=O)N[C@H]3CCCc4ccccc43)ccn2)c1 [Example 341, (S)—N^1-(4-(Diethylamino)-2-(4-(1,2,3,4-tetrahydronaphthalen-1-ylcarbamoyl)pyridin-2-yl)phenyl)-N^3-methyl-N^3-(3-methyl-16-oxo-6,9,12-trioxa-3,15-diazaheptadecyl)isophthalamide] | 
1000 to 7940 | CCN(CC)c1ccc(NC(=O)c2cccc(C(=O)N(C)CCN(C)CCOCCOCCOCCNC(=O)c3cccnc3)c2)c(-c2cc(C(=O)N[C@H]3CCCc4ccccc43)ccn2)c1 [Example 342, (S)—N^1-(4-(Diethylamino)-2-(4-(1,2,3,4-tetrahydronaphthalen-1-ylcarbamoyl)pyridin-2-yl)phenyl)-N^3-methyl-N^3-(14-methyl-1-oxo-1-(pyridin-3-yl)-5,8,11-trioxa-2,14-diazahexadecan-16-yl)isophthalamide] | 
